Data: article PMC9019904, “AD Informer Set: Chemical tools to facilitate Alzheimer's disease drug discovery” (Alzheimer's & Dementia : Translational Research & Clinical …, 2022)
≈ marks a conversion by molar mass, not a printed value.

Key:
[1] = test system: cellular system; conditions: published cellular activity at 10 μM; cited from earlier work
[2] = Kinetic solubility in aqueous buffer pH 7.4 by total chemiluminescent nitrogen determination (Analiza); conditions: aqueous buffer, pH 7.4, aqueous buffer, kinetic from dmso stock
[3] = test system: BV2 (mouse microglia) cell line; test: pHrodo-myelin phagocytosis/cell viability high content imaging assay: phagocytosis signal; assay type: cell-based; conditions: BV2 cells, 10 μM
In short: (§1)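 High content imaging, roughly 22 hours post pHrodo-myelin addition, recorded phagocytosis signal alongside viability in microglial lines BV2 (mouse) and HMC3 (human). Apoptosis tracked through intensity rise (early) and fall (later) among three extracted measurements.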

[4] = test system: HMC3 (human microglia) cell line; test: as above; assay type: cell-based; conditions: HMC3 cells, 10 μM
In short: as §1

[5] = test system: BV2 (mouse microglia) cell line; test: pHrodo-myelin phagocytosis/cell viability high content imaging assay: viability (cell count, nuclear area, nuclear intensity); conditions: BV2 cells, 10 μM, cell count <70% control
In short: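 10 μM single dose, 48 h total; pHrodo-myelin present final 20 h. Read-out: automated imaging, total cell count/well, mean nuclear intensity/cell. n=2, normalized to untreated wells, % control.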

| Structure (SMILES) | Reported as cell active (<10 μM) [1] | solubility kinetic [2] | Stimulation of mouse microglial phagocytosis at 10 μM (>150% control) [3] | Inhibition of human microglial phagocytosis at 10 μM (<70% control) [4] | Mouse microglial cytotoxicity at 10 μM (<70% control) [5] | Inhibition of mouse microglial phagocytosis at 10 μM (<70% control) [3] |
| --- | --- | --- | --- | --- | --- | --- |
| CN(CCOc1ccc(CC2SC(=O)NC2=O)cc1)c1ccccn1 (stereo not drawn) [Rosiglitazone] | Y (Published data supports that the compound is active in a cellular system when dosed at 10 μM (Y/N)) | 57 µM (≈ 20.4 µg/mL) | – | – | – | – |
| Cc1cc(C)nc(NC(=S)N2CCN(Cc3ccc(C(F)(F)F)cc3)CC2)c1 [NCT-503] | Y (Published data supports that the compound is active in a cellular system when dosed at 10 μM (Y/N)) | 34.3 µM (≈ 14 µg/mL) | Y (The compound was found to stimulate phagocytosis (response threshold: >150% control) when murine immortalized microglial cells were dosed at 10 μM (Y: yes)) | – | – | – |
| CCc1ccc(S(=O)(=O)c2ccccc2)cc1S(=O)(=O)NCCCN(C)C [sFRP-1 Inhibitor] | Y (Published data supports that the compound is active in a cellular system when dosed at 10 μM (Y/N)) | 164 µM (≈ 67.2 µg/mL) | Y (The compound was found to stimulate phagocytosis (response threshold: >150% control) when murine immortalized microglial cells were dosed at 10 μM (Y: yes)) | – | – | – |
| CCc1ccc(CCOc2ccc(CC3SC(=O)NC3=O)cc2)nc1 (stereo not drawn) [Pioglitazone] | Y (Published data supports that the compound is active in a cellular system when dosed at 10 μM (Y/N)) | 3.2 µM (≈ 1.14 µg/mL) | – | – | – | – |
| CCCCCCCCCCCCCCCCOCC(COCC(F)(F)F)OP(=O)([O-])OC.[Li+] (stereo not drawn) [MJ-33 (lithium salt)] | Y (Published data supports that the compound is active in a cellular system when dosed at 10 μM (Y/N)) | – | – | Y (The compound was found to inhibit phagocytosis (response threshold: <70% control) when human immortalized microglial cells were dosed at 10 μM (Y: yes)) | – | – |
| O=C1CCc2cc(OCCCCc3nnnn3C3CCCCC3)ccc2N1 [Cilostazol (OPC 13013)] | Y (Published data supports that the compound is active in a cellular system when dosed at 10 μM (Y/N)) | 58.5 µM (≈ 21.6 µg/mL) | – | – | – | – |
| Cc1cc(C)nc(NC(=S)N2CCN(c3ccc(C(F)(F)F)cn3)CC2)c1 [NCT-502] | Y (Published data supports that the compound is active in a cellular system when dosed at 10 μM (Y/N)) | 2.6 µM (≈ 1.03 µg/mL) | Y (The compound was found to stimulate phagocytosis (response threshold: >150% control) when murine immortalized microglial cells were dosed at 10 μM (Y: yes)) | – | – | – |
| CN1c2ccc([N+](=O)[O-])cc2N=C(c2ccc(C(=O)O)cc2)c2cc3c(cc21)C(C)(C)CCC3(C)C [HX531] | Y (Published data supports that the compound is active in a cellular system when dosed at 10 μM (Y/N)) | < 0.7 µM | – | – | Y (The compound was found to be cytotoxic (cell count threshold: <70% control) when murine immortalized microglial cells were dosed at 10 μM (Y: yes)) | – |
| CCCc1cc(-c2nc(-c3ccc(C)cc3)cs2)ccn1 [Fatostatin] | Y (Published data supports that the compound is active in a cellular system when dosed at 10 μM (Y/N)) | < 1.1 µM | Y (The compound was found to stimulate phagocytosis (response threshold: >150% control) when murine immortalized microglial cells were dosed at 10 μM (Y: yes)) | – | Y (The compound was found to be cytotoxic (cell count threshold: <70% control) when murine immortalized microglial cells were dosed at 10 μM (Y: yes)) | – |
| Cc1c(COc2cc(OCc3cccc(C#N)c3)c(CN3C[C@H](O)C[C@@H]3C(=O)O)cc2Cl)cccc1-c1ccc2c(c1)OCCO2 [BMS-1166] | Y (Published data supports that the compound is active in a cellular system when dosed at 10 μM (Y/N)) | 2.1 µM (≈ 1.35 µg/mL) | – | – | – | – |
| Cc1cc(C)nc(NS(=O)(=O)c2ccc(NC(=O)NC(=O)c3ccc(Cl)cc3Cl)cc2)n1 [LDN-193188] | Y (Published data supports that the compound is active in a cellular system when dosed at 10 μM (Y/N)) | 7.1 µM (≈ 3.51 µg/mL) | – | – | – | – |
| Cc1cc2c(cc1C1(c3ccc(C(=O)O)cn3)CC1)C(C)(C)CCC2(C)C [LG 100268] | Y (Published data supports that the compound is active in a cellular system when dosed at 10 μM (Y/N)) | 92.8 µM (≈ 33.7 µg/mL) | – | – | – | – |
| Nc1ncnc2c1nc(Br)n2[C@@H]1O[C@@H]2COP(=O)([O-])O[C@H]2[C@H]1O.[Na+] [8-Bromo-cAMP (sodium salt)] | Y (Published data supports that the compound is active in a cellular system when dosed at 10 μM (Y/N)) | 166 µM | Y (The compound was found to stimulate phagocytosis (response threshold: >150% control) when murine immortalized microglial cells were dosed at 10 μM (Y: yes)) | – | – | – |
| C[C@H](CCCC(C)(C)O)[C@H]1CC[C@H]2[C@@H]3CC=C4C[C@@H](O)CC[C@]4(C)[C@H]3CC[C@]12C [25-Hydroxycholesterol] | Y (Published data supports that the compound is active in a cellular system when dosed at 10 μM (Y/N)) | – | – | Y (The compound was found to inhibit phagocytosis (response threshold: <70% control) when human immortalized microglial cells were dosed at 10 μM (Y: yes)) | – | Y (The compound was found to inhibit phagocytosis (response threshold: <70% control) when murine immortalized microglial cells were dosed at 10 μM (Y: yes)) |
| Nc1ncnc2c1nc(Sc1ccc(Cl)cc1)n2[C@@H]1O[C@@H]2COP(=O)([O-])O[C@H]2[C@H]1O.[Na+] [pCPT-cAMP] | Y (Published data supports that the compound is active in a cellular system when dosed at 10 μM (Y/N)) | 135 µM | – | – | – | – |
| COc1ccc(CCN2CCN(CCCc3ccccc3)CC2)cc1OC.Cl.Cl [Cutamesine (SA 4503)] | Y (Published data supports that the compound is active in a cellular system when dosed at 10 μM (Y/N)) | 108 µM | – | – | – | – |
| N[C@@H](CC(=O)Nc1ccc(Oc2cc(F)c(F)cc2Br)cc1)C(=O)O [WAY 213613] | Y (Published data supports that the compound is active in a cellular system when dosed at 10 μM (Y/N)) | 148 µM (≈ 61.5 µg/mL) | Y (The compound was found to stimulate phagocytosis (response threshold: >150% control) when murine immortalized microglial cells were dosed at 10 μM (Y: yes)) | – | Y (The compound was found to be cytotoxic (cell count threshold: <70% control) when murine immortalized microglial cells were dosed at 10 μM (Y: yes)) | – |
| CC(=O)c1nc([C@@H](O)[C@H](O)[C@H](O)CO)c[nH]1 [THI] | Y (Published data supports that the compound is active in a cellular system when dosed at 10 μM (Y/N)) | 186 µM (≈ 42.8 µg/mL) | Y (The compound was found to stimulate phagocytosis (response threshold: >150% control) when murine immortalized microglial cells were dosed at 10 μM (Y: yes)) | – | – | – |
| Cl.N=C(CCl)NCCC[C@H](NC(=O)c1ccccc1)C(N)=O [Cl-amidine] | Y (Published data supports that the compound is active in a cellular system when dosed at 10 μM (Y/N)) | – | – | Y (The compound was found to inhibit phagocytosis (response threshold: <70% control) when human immortalized microglial cells were dosed at 10 μM (Y: yes)) | – | – |
| CC(=O)O[C@@H]1[C@@H](OC(C)=O)[C@@H](O)[C@H](Oc2c(-c3ccc(O)cc3)oc3cc(O)cc(O)c3c2=O)O[C@H]1C [SL0101] | Y (Published data supports that the compound is active in a cellular system when dosed at 10 μM (Y/N)) | – | – | Y (The compound was found to inhibit phagocytosis (response threshold: <70% control) when human immortalized microglial cells were dosed at 10 μM (Y: yes)) | – | – |
| C[C@@H]1O[C@@H](O[C@H]2[C@H](Oc3cc(O)c4c(c3)O[C@H](c3ccc(O)cc3)CC4=O)O[C@H](CO)[C@@H](O)[C@@H]2O)[C@H](O)[C@H](O)[C@H]1O [Naringin] | Y (Published data supports that the compound is active in a cellular system when dosed at 10 μM (Y/N)) | – | Y (The compound was found to stimulate phagocytosis (response threshold: >150% control) when murine immortalized microglial cells were dosed at 10 μM (Y: yes)) | Y (The compound was found to inhibit phagocytosis (response threshold: <70% control) when human immortalized microglial cells were dosed at 10 μM (Y: yes)) | – | – |
| CCOC(=O)c1cccc(CNc2ccc(N(C)C(=O)Nc3ccccc3)cc2)c1 [GN6958 (Compound 8)] | Y (Published data supports that the compound is active in a cellular system when dosed at 10 μM (Y/N)) | 3.7 µM (≈ 1.49 µg/mL) | Y (The compound was found to stimulate phagocytosis (response threshold: >150% control) when murine immortalized microglial cells were dosed at 10 μM (Y: yes)) | – | – | – |
| Oc1c(F)cc(-c2cnccc2-c2ccc(N3CCOCC3)cc2)cc1F [LJI308] | Y (Published data supports that the compound is active in a cellular system when dosed at 10 μM (Y/N)) | 3.7 µM (≈ 1.36 µg/mL) | Y (The compound was found to stimulate phagocytosis (response threshold: >150% control) when murine immortalized microglial cells were dosed at 10 μM (Y: yes)) | – | – | – |
